The values that follow come from ChEMBL document CHEMBL5614409, “Discovery of potent HIV-1 NNRTIs by CuAAC click-chemistry-based miniaturized synthesis, rapid screening and structure optimization” (Eur J Med Chem, 2024).

Converted amounts (≈) assume the structure as drawn.

By EC50 is commonly meant the midpoint of the concentration-response curve. One may read the IC50 as the concentration that gives 50% inhibition. By CC50 is commonly meant the concentration that lowers cell viability or growth by half. The solubility (thermodynamic) is the concentration in solution at equilibrium with solid. Broadly, the solubility is the concentration that dissolves in the medium under given conditions. Low readings indicate little dissolved substance, high ones much dissolved substance.

In data set [1] the test system is Human immunodeficiency virus 1. Kind of data set: Antiviral activity against HIV1 IIIB harboring K103 N mutant infected in MT4 cells assessed as reduction in virus induced cytopathic effect incubated for 5 days by MTT method. Particulars: Human immunodeficiency virus 1, IIIB, MT4, 120 h. In kind it is functional, organism-based. (Cytopathic effects are the visible damage that an infection or toxin causes in cultured cells.)

Data set [2] deals with Human immunodeficiency virus type 1 reverse transcriptase (Human immunodeficiency virus 1, UniProt Q72547). Kind of data set: Inhibition of HIV-1 reverse transcriptase assessed as reduction in biotin-dUTP incorporation incubated for 2 hrs in presence of template and viral nucleotides by ELISA.
The nature of data set [3]: Selectivity index, ratio of CC50 for human MT4 cells to EC50 for antiviral activity against HIV1 IIIB infected in MT4 cells. The conditions noted are these: read-out: Ratio CC50/EC50. The data set is classed as toxicity, cell-based.
Data set [4] is described as follows: Cytotoxicity against human MT4 cells assessed as reduction in cell viability incubated for 5 days by MTT method. Particulars: time 5 day. In kind it is toxicity, cell-based. In general terms: Tetrazolium dyes change colour on reduction, which living cells bring about.
Data set [5] deals with Human immunodeficiency virus 1. Kind of data set: Antiviral activity against HIV1 IIIB harboring E138K mutant infected in MT4 cells assessed as reduction in virus induced cytopathic effect incubated for 5 days by MTT method. In kind it is functional, organism-based. Particulars: Human immunodeficiency virus 1, IIIB, MT4, 120 h.
For data set [6], the system named is Human immunodeficiency virus 1. Kind of data set: Antiviral activity against HIV1 IIIB harboring F227L/V106A double mutant infected in MT4 cells assessed as reduction in virus induced cytopathic effect incubated for 5 days by MTT method. Particulars: Human immunodeficiency virus 1, IIIB, MT4, 120 h. The data set is classed as functional, organism-based.
For data set [7], the system named is Human immunodeficiency virus 1. The data set is described as follows: Antiviral activity against HIV1 IIIB harboring Y188L mutant infected in MT4 cells assessed as reduction in virus induced cytopathic effect incubated for 5 days by MTT method. The data set is classed as functional, organism-based. Particulars: Human immunodeficiency virus 1, IIIB, MT4, 120 h.

Data set [8] can be described thus: Aqueous solubility of compound at pH 2 incubated for 24 hrs under shaking condition by HPLC method. In kind it is physicochemical. Particulars: buffer.
The nature of data set [9]: Aqueous solubility of compound at pH 7 incubated for 24 hrs under shaking condition by HPLC method. In kind it is physicochemical. Particulars: buffer.
The test system of data set [10] is Human immunodeficiency virus 1. The data set is described as follows: Antiviral activity against HIV1 IIIB harboring Y181C mutant infected in MT4 cells assessed as reduction in virus induced cytopathic effect incubated for 5 days by MTT method. The data set is classed as functional, organism-based. Particulars: Human immunodeficiency virus 1, IIIB, MT4, 120 h.

Data set [11] deals with Human immunodeficiency virus 1. The data set is described as follows: Antiviral activity against HIV1 IIIB harboring L100I mutant infected in MT4 cells assessed as reduction in virus induced cytopathic effect incubated for 5 days by MTT method. The data set is classed as functional, organism-based. The conditions noted are these: Human immunodeficiency virus 1, IIIB, MT4, 120 h.

Data set [12] relates to Human immunodeficiency virus 1. The data set is described as follows: Antiviral activity against HIV1 IIIB harboring RES056 mutant infected in MT4 cells assessed as reduction in virus induced cytopathic effect incubated for 5 days by MTT method. The data set is classed as functional, organism-based. Particulars: Human immunodeficiency virus 1, IIIB, MT4, 120 h.
Data set [13] in a line: Aqueous solubility of compound at pH 7.4 incubated for 24 hrs under shaking condition by HPLC method. In kind it is physicochemical. Particulars: buffer.
The subject of data set [14] is Human immunodeficiency virus 1. The data set is described as follows: Antiviral activity against HIV1 IIIB infected in MT4 cells assessed as reduction in virus induced cytopathic effect incubated for 5 days by MTT method. In kind it is functional, organism-based. The conditions noted are these: Human immunodeficiency virus 1, IIIB, MT4, 120 h.
In data set [15] the test system is Human immunodeficiency virus 1. The data set is described as follows: Antiviral activity against HIV1 IIIB harboring Y188L mutant infected in MT4 cells assessed as fold increase in reduction of virus induced cytopathic effect incubated for 5 days by MTT method relative to A6N36. The conditions noted are these: time 5 day. In kind it is functional.
The subject of data set [16] is Human immunodeficiency virus 1. Kind of data set: Antiviral activity against HIV1 IIIB harboring F227L/V106A double mutant infected in MT4 cells assessed as fold increase in reduction of virus induced cytopathic effect incubated for 5 days by MTT method relative to A6N36. In kind it is functional. The conditions noted are these: time 5 day.
The test system of data set [17] is Human immunodeficiency virus 1. The data set is described as follows: Antiviral activity against HIV1 IIIB harboring RES056 mutant infected in MT4 cells assessed as fold increase in reduction of virus induced cytopathic effect incubated for 5 days by MTT method relative to A6N36. The data set is classed as functional. The conditions noted are these: time 5 day.

Data set [18] can be described thus: Aqueous solubility of compound at pH 7. Particulars: buffer.
Data set [19] can be described thus: Aqueous solubility of compound at pH 7.4. Particulars: buffer.

As for `Cc1cc(/C=C/C#N)cc(C)c1Oc1nc(NC2CCN(Cc3cn(CC(=O)NC4CCOCC4)nn3)CC2)nc2sccc12`, the EC50 in data set [1] came to 5 nM; in data set [5], 18 nM; in [6], 47 nM; in data set [7] it was 29 nM; in data set [10] it was 15 nM; in data set [11], 5 nM. Also, the EC50 was determined as 62 nM in [12] and 3 nM in [14]. Further, in data set [2], the IC50 turned out to be 220 nM. Moreover, in data set [3], the selectivity ratio was 4980. Also, in data set [4], the 50% cytotoxic concentration (CC50) at 120 h was determined as 16000 nM. Also, the thermodynamic solubility at 24 h came out at 1610 µg/mL (≈ 2570 µM) in data set [8], 22.5 µg/mL (≈ 35.8 µM) in data set [9] and 23.1 µg/mL (≈ 36.8 µM) in [13]. Besides, the “fold change (FC)” value in data set [15] is 3.
With `CNC(=O)Cn1cc(CN2CCC(Nc3nc(Oc4c(C)cc(/C=C/C#N)cc4C)c4ccsc4n3)CC2)nn1`, the EC50 in data set [1] is 3 nM; in data set [5], 9 nM; in data set [6], 28 nM; in [7], 30 nM; in data set [10] it was 8 nM; in [11], 4 nM. Moreover, the EC50 turned out to be 58 nM in data set [12] and 5 nM in data set [14]. Moreover, in data set [2], the IC50 was 134 nM. Also, the selectivity ratio in data set [3] was found to be 3990. Further, in data set [4], the CC50 at 120 h turned out to be 18700 nM. In addition, the solubility (thermodynamic) at 24 h in [8] is 733 µg/mL (≈ 1310 µM); in [9], 23.6 µg/mL (≈ 42.3 µM); in [13], 20.1 µg/mL (≈ 36 µM). Moreover, the results for the “fold change (FC)” value in data set [16], in data set [17] and in data set [15] were 2, 2 and 3, respectively.
With `Cc1cc(/C=C/C#N)cc(C)c1Oc1nc(NC2CCN(Cc3cn(CC(N)=O)nn3)CC2)nc2sccc12`, the EC50 in data set [1] is 5 nM; in data set [5], 14 nM; in [6], 51 nM; in data set [7] it was 39 nM; in data set [10] it was 17 nM; in data set [11], 6 nM. The half-maximal effective concentration (EC50) was found to be 89 nM in data set [12] and 4 nM in data set [14]. Besides, the IC50 in data set [2] came to 118 nM. Also, the selectivity ratio in data set [3] came to 14500. The CC50 at 120 h in data set [4] is 62500 nM. Also, the solubility (thermodynamic) at 24 h in [8] was 228 µg/mL (≈ 419 µM); in data set [9] it was 22.5 µg/mL (≈ 41.4 µM); in data set [13], 20.1 µg/mL (≈ 37 µM). Besides, the “fold change (FC)” value in data set [15] was determined as 3.
For `Cc1cc(/C=C/C#N)cc(C)c1Nc1ccnc(Nc2ccc(C#N)cc2)n1` [RILPIVIRINE], the solubility in data set [18] and in data set [19] was < 1 µg/mL throughout.
